Calls of active or inactive are those of the source. The calls are words filed in the database; no cut-off is given here.
Tests used:
[1] = test system: HepG2; assay: Induction of apoptosis in human HepG2 cells assessed as viable cells at 2.5 uM after 8 hrs by Annexin V-FITC/propidium iodide staining-based flow cytometry (reference value: 97.43%); assay type: functional; settings: HepG2, 8 h, read-out: Activity
[2] = test system: HepG2; assay: Induction of apoptosis in human HepG2 cells assessed as necrotic cells at 5 uM after 24 hrs by Annexin V-FITC/propidium iodide staining-based flow cytometry (reference value: 0.12%); assay type: functional
[3] = test system: HepG2; assay: Induction of apoptosis in human HepG2 cells assessed as viable cells at 7.5 uM after 48 hrs by Annexin V-FITC/propidium iodide staining-based flow cytometry (reference value: 96.67%); assay type: functional; settings: HepG2, 48 h, read-out: Activity
[4] = test system: Mus musculus; assay: Toxicity in Kunming mouse xenografted with […] H22 cells assessed as effect on heart weight index at 30 mg/kg, iv administered for 7 consecutive days; assay type: organism-based; settings: in vivo
[5] = test system: HepG2; assay: Induction of apoptosis in human HepG2 cells assessed as late apoptotic cells at 2.5 uM after 8 hrs by Annexin V-FITC/propidium iodide staining-based flow cytometry (reference value: 0.88%); assay type: functional
[6] = test system: HepG2; assay: Induction of autophagy in human HepG2 cells assessed as increase in LC3-2 expression at 5 uM by Western blot analysis; assay type: functional, cell-based
[7] = test system: Mus musculus; assay: Toxicity in Kunming mouse xenografted with […] H22 cells assessed as effect on body weight at 30 mg/kg, iv administered for 7 consecutive days; assay type: organism-based; settings: in vivo
[8] = test system: HepG2; assay: Induction of apoptosis in human HepG2 cells assessed as disruption of mitochondrial membrane potential after 48 hrs by Rh123 staining-based fluorescence quenching analysis; assay type: functional, cell-based
[9] = Drug localization in lysosomes of human HepG2 cells at 7.5 uM after 8 hrs by LysoTracker Red dye-based confocal fluorescence microscopic analysis; assay type: ADME, subcellular, Lysosome; settings: hepg2, 8 h
[10] = test system: HepG2; assay: Induction of apoptosis in human HepG2 cells assessed as late apoptotic cells at 5 uM after 8 hrs by Annexin V-FITC/propidium iodide staining-based flow cytometry (reference value: 0.88%); assay type: functional
[11] = test system: HepG2; assay: Induction of apoptosis in human HepG2 cells assessed as viable cells at 7.5 uM after 8 hrs by Annexin V-FITC/propidium iodide staining-based flow cytometry (reference value: 97.43%); assay type: functional; settings: HepG2, 8 h, read-out: Activity
[12] = test system: HepG2; assay: Induction of apoptosis in human HepG2 cells assessed as early apoptotic cells at 2.5 uM after 24 hrs by Annexin V-FITC/propidium iodide staining-based flow cytometry (reference value: 2.07%); assay type: functional
[13] = test system: HepG2; assay: Induction of apoptosis in human HepG2 cells assessed as caspase 3 activation after 48 hrs by immunofluorescence staining-based high content screening assay; assay type: functional, cell-based
[14] = Drug localization in endoplasmic reticulum of human HepG2 cells at 7.5 uM after 8 hrs by ER-Tracker Red dye-based confocal fluorescence microscopic analysis; assay type: ADME, subcellular; settings: hepg2, 8 h
[15] = test system: HepG2; assay: Induction of apoptosis in human HepG2 cells assessed as late apoptotic cells at 5 uM after 36 hrs by Annexin V-FITC/propidium iodide staining-based flow cytometry (reference value: 1.08%); assay type: functional
[16] = test system: HepG2; assay: Induction of apoptosis in human HepG2 cells assessed as early apoptotic cells at 7.5 uM after 36 hrs by Annexin V-FITC/propidium iodide staining-based flow cytometry (reference value: 2.08%); assay type: functional
[17] = test system: HepG2; assay: Induction of apoptosis in human HepG2 cells assessed as necrotic cells at 7.5 uM after 48 hrs by Annexin V-FITC/propidium iodide staining-based flow cytometry (reference value: 0.08%); assay type: functional
[18] = test system: HepG2; assay: Induction of apoptosis in human HepG2 cells assessed as early apoptotic cells at 7.5 uM after 8 hrs by Annexin V-FITC/propidium iodide staining-based flow cytometry (reference value: 1.29%); assay type: functional

SMILES: COc1ccc2cc(-c3oc4c(CNCCCCN)cccc4c(=O)c3OC)ccc2c1Br.Cl.Cl
- viability at 2.5 µM [1]: 96.1%
- Activity [2]: 0.05%
- viability at 7.5 µM [3]: 45.6%
- Activity [4]: Non-Toxic
- Activity [5]: 1.52%
- Activity [6]: Active
- Activity [7]: Non-Toxic
- Activity [8]: Dose-dependent effect
- Drug uptake [9]: Not Active
- Activity [10]: 1.91%
- viability at 7.5 µM [11]: 78.5%
- Activity [12]: 10.46%
- Activity [13]: Dose-dependent effect
- Drug uptake [14]: Active
- Activity [15]: 2.15%
- Activity [16]: 28.78%
- Activity [17]: 0.17%
- Activity [18]: 18.1%

Reference: ChEMBL document CHEMBL4196011, “The lead optimization of the polyamine conjugate of flavonoid with a naphthalene motif: Synthesis and biological evaluation” (Eur J Med Chem, 2018)
